Measured values reported in ChEMBL document CHEMBL3576778, “Structure-Activity Relationship Studies of a Series of Semisynthetic Lipopeptides Leading to the Discovery of Surotomycin, a Novel Cyclic Lipopeptide Being Developed for the Treatment of Clostridium difficile-Associated Diarrhea” (J Med Chem, 2015).
≈ marks a conversion by molar mass, not a printed value.

Legend:
Type in all cases: functional
Enterococcus faecalis = experiment: Antimicrobial activity against daptomycin-resistant Enterococcus faecalis ATCC 49452 incubated anaerobically at 37 degC for 48 hrs by agar dilution method; conditions: ATCC 49452, 48 h
Enterococcus faecium = experiment: Antimicrobial activity against daptomycin-resistant Enterococcus faecium ATCC 6569 incubated anaerobically at 37 degC for 48 hrs by agar dilution method; conditions: ATCC 6569, 48 h
Clostridioides difficile = experiment: Antimicrobial activity against daptomycin-resistant Clostridium difficile NAP1 incubated anaerobically at 37 degC for 48 hrs by agar dilution method; conditions: NAP1, 48 h
Staphylococcus aureus = experiment: Antimicrobial activity against daptomycin-susceptible Staphylococcus aureus ATCC 29213 incubated anaerobically at 37 degC for 48 hrs by agar dilution method; conditions: ATCC 29213, 48 h

| SMILES | MIC (Enterococcus faecalis) [µg/mL] | MIC (Enterococcus faecium) [µg/mL] | MIC (Clostridioides difficile) [µg/mL] | MIC (Staphylococcus aureus) [µg/mL] |
| --- | --- | --- | --- | --- |
| CCCCCCOc1ccc(-c2csc(C(=O)N[C@@H](Cc3c[nH]c4ccccc34)C(=O)N[C@@H](CC(N)=O)C(=O)N[C@@H](CC(=O)O)C(=O)N[C@@H]3C(=O)NCC(=O)N[C@@H](CCCN)C(=O)NC(CC(=O)O)C(=O)N[C@H](C)C(=O)N[C@@H](CC(=O)O)C(=O)NCC(=O)N[C@H](CO)C(=O)N[C@@H]([C@@H](C)CC(=O)O)C(=O)N[C@@H](CC(=O)c4ccccc4N)C(=O)O[C@@H]3C)c2)cc1 (single isomer, unassigned) | 8 (≈ 4.56 µM) | 2 (≈ 1.14 µM) | 4 (≈ 2.28 µM) | 0.5 (≈ 0.285 µM) |
| CCCCCCSc1ccc(-c2csc(C(=O)N[C@@H](Cc3c[nH]c4ccccc34)C(=O)N[C@@H](CC(N)=O)C(=O)N[C@@H](CC(=O)O)C(=O)N[C@@H]3C(=O)NCC(=O)N[C@@H](CCCN)C(=O)N[C@H](CC(=O)O)C(=O)N[C@H](C)C(=O)N[C@@H](CC(=O)O)C(=O)NCC(=O)N[C@H](CO)C(=O)N[C@@H]([C@@H](C)CC(=O)O)C(=O)N[C@@H](CC(=O)c4ccccc4N)C(=O)O[C@@H]3C)c2)cc1 | > 32 | 16 (≈ 9.05 µM) | 8 (≈ 4.52 µM) | 8 (≈ 4.52 µM) |
| C[C@H]1NC(=O)C(CC(=O)O)NC(=O)[C@H](CCCN)NC(=O)CNC(=O)[C@@H](NC(=O)[C@H](CC(=O)O)NC(=O)[C@H](CC(N)=O)NC(=O)[C@H](Cc2c[nH]c3ccccc23)NC(=O)CCCCCCC2CCCCC2)[C@@H](C)OC(=O)[C@H](CC(=O)c2ccccc2N)NC(=O)[C@H]([C@@H](C)CC(=O)O)NC(=O)[C@@H](CO)NC(=O)CNC(=O)[C@H](CC(=O)O)NC1=O (single isomer, unassigned) | 16 (≈ 9.63 µM) | 8 (≈ 4.82 µM) | 1 (≈ 0.602 µM) | 0.5 (≈ 0.301 µM) |
| CCCCc1ccc(/C=C(\C)C(=O)N[C@@H](Cc2c[nH]c3ccccc23)C(=O)N[C@@H](CC(N)=O)C(=O)N[C@@H](CC(=O)O)C(=O)N[C@@H]2C(=O)NCC(=O)N[C@@H](CCCN)C(=O)NC(CC(=O)O)C(=O)N[C@H](C)C(=O)N[C@@H](CC(=O)O)C(=O)NCC(=O)N[C@H](CO)C(=O)N[C@@H]([C@@H](C)CC(=O)O)C(=O)N[C@@H](CC(=O)c3ccccc3N)C(=O)O[C@@H]2C)cc1 (single isomer, unassigned) | > 32 | 32 (≈ 19.2 µM) | 2 (≈ 1.2 µM) | 1 (≈ 0.6 µM) |
| CCCCCCCCCCCCCC(=O)N[C@@H](Cc1c[nH]c2ccccc12)C(=O)N[C@@H](CC(N)=O)C(=O)N[C@@H](CC(=O)O)C(=O)N[C@@H]1C(=O)NCC(=O)N[C@@H](CCCN)C(=O)NC(CC(=O)O)C(=O)N[C@H](C)C(=O)N[C@@H](CC(=O)O)C(=O)NCC(=O)N[C@H](CO)C(=O)N[C@@H]([C@@H](C)CC(=O)O)C(=O)N[C@@H](CC(=O)c2ccccc2N)C(=O)O[C@@H]1C (single isomer, unassigned) | 4 (≈ 2.39 µM) | 4 (≈ 2.39 µM) | 16 (≈ 9.54 µM) | 1 (≈ 0.596 µM) |
| CCCCCCCCCCC(=O)N[C@@H](Cc1c[nH]c2ccccc12)C(=O)N[C@@H](CC(N)=O)C(=O)N[C@@H](CC(=O)O)C(=O)N[C@@H]1C(=O)NCC(=O)N[C@@H](CCCN)C(=O)NC(CC(=O)O)C(=O)N[C@H](C)C(=O)N[C@@H](CC(=O)O)C(=O)NCC(=O)N[C@H](CO)C(=O)N[C@@H]([C@@H](C)CC(=O)O)C(=O)N[C@@H](CC(=O)c2ccccc2N)C(=O)O[C@@H]1C (single isomer, unassigned) | 32 (≈ 19.6 µM) | > 32 | 4 (≈ 2.45 µM) | 2 (≈ 1.22 µM) |
| C[C@H]1NC(=O)C(CC(=O)O)NC(=O)[C@H](CCCN)NC(=O)CNC(=O)[C@@H](NC(=O)[C@H](CC(=O)O)NC(=O)[C@H](CC(N)=O)NC(=O)[C@H](Cc2c[nH]c3ccccc23)NC(=O)CCCCCCc2ccccc2)[C@@H](C)OC(=O)[C@H](CC(=O)c2ccccc2N)NC(=O)[C@H]([C@@H](C)CC(=O)O)NC(=O)[C@@H](CO)NC(=O)CNC(=O)[C@H](CC(=O)O)NC1=O (single isomer, unassigned) | > 32 | > 32 | 8 (≈ 4.83 µM) | 16 (≈ 9.67 µM) |
| C[C@H]1NC(=O)[C@@H](CC(=O)O)NC(=O)[C@H](CCCN)NC(=O)CNC(=O)[C@@H](NC(=O)[C@H](CC(=O)O)NC(=O)[C@H](CC(N)=O)NC(=O)[C@H](Cc2c[nH]c3ccccc23)NC(=O)c2ccc(-c3ccc(Cl)cc3)cc2)[C@@H](C)OC(=O)[C@H](CC(=O)c2ccccc2N)NC(=O)[C@H]([C@@H](C)CC(=O)O)NC(=O)[C@@H](CO)NC(=O)CNC(=O)[C@H](CC(=O)O)NC1=O | > 32 | > 32 | 16 (≈ 9.52 µM) | 4 (≈ 2.38 µM) |
| CCCCCCCCCCCCCCC(=O)N[C@@H](Cc1c[nH]c2ccccc12)C(=O)N[C@@H](CC(N)=O)C(=O)N[C@@H](CC(=O)O)C(=O)N[C@@H]1C(=O)NCC(=O)N[C@@H](CCCN)C(=O)NC(CC(=O)O)C(=O)N[C@H](C)C(=O)N[C@@H](CC(=O)O)C(=O)NCC(=O)N[C@H](CO)C(=O)N[C@@H]([C@@H](C)CC(=O)O)C(=O)N[C@@H](CC(=O)c2ccccc2N)C(=O)O[C@@H]1C (single isomer, unassigned) | 4 (≈ 2.37 µM) | 4 (≈ 2.37 µM) | 16 (≈ 9.46 µM) | 1 (≈ 0.591 µM) |
| C[C@H]1NC(=O)C(CC(=O)O)NC(=O)[C@H](CCCN)NC(=O)CNC(=O)[C@@H](NC(=O)[C@H](CC(=O)O)NC(=O)[C@H](CC(N)=O)NC(=O)[C@H](Cc2c[nH]c3ccccc23)NC(=O)CCCCC2CCCCC2)[C@@H](C)OC(=O)[C@H](CC(=O)c2ccccc2N)NC(=O)[C@H]([C@@H](C)CC(=O)O)NC(=O)[C@@H](CO)NC(=O)CNC(=O)[C@H](CC(=O)O)NC1=O (single isomer, unassigned) | > 32 | 32 (≈ 19.6 µM) | 4 (≈ 2.45 µM) | 1 (≈ 0.612 µM) |
| CCCCCCCOc1ccc(-c2ccc(C(=O)N[C@@H](Cc3c[nH]c4ccccc34)C(=O)N[C@@H](CC(N)=O)C(=O)N[C@@H](CC(=O)O)C(=O)N[C@@H]3C(=O)NCC(=O)N[C@@H](CCCN)C(=O)N[C@H](CC(=O)O)C(=O)N[C@H](C)C(=O)N[C@@H](CC(=O)O)C(=O)NCC(=O)N[C@H](CO)C(=O)N[C@@H]([C@@H](C)CC(=O)O)C(=O)N[C@@H](CC(=O)c4ccccc4N)C(=O)O[C@@H]3C)cc2)cc1 | 4 (≈ 2.27 µM) | 1 (≈ 0.568 µM) | 2 (≈ 1.14 µM) | 0.25 (≈ 0.142 µM) |
| CCCCCOc1ccc(/C=C/C(=O)N[C@@H](Cc2c[nH]c3ccccc23)C(=O)N[C@@H](CC(N)=O)C(=O)N[C@@H](CC(=O)O)C(=O)N[C@@H]2C(=O)NCC(=O)N[C@@H](CCCN)C(=O)NC(CC(=O)O)C(=O)N[C@H](C)C(=O)N[C@@H](CC(=O)O)C(=O)NCC(=O)N[C@H](CO)C(=O)N[C@@H]([C@@H](C)CC(=O)O)C(=O)N[C@@H](CC(=O)c3ccccc3N)C(=O)O[C@@H]2C)cc1 (single isomer, unassigned) | > 32 | > 32 | 4 (≈ 2.38 µM) | 4 (≈ 2.38 µM) |
| CCCCCCCCOc1ccc(-c2ccc(C(=O)N[C@@H](Cc3c[nH]c4ccccc34)C(=O)N[C@@H](CC(N)=O)C(=O)N[C@@H](CC(=O)O)C(=O)N[C@@H]3C(=O)NCC(=O)N[C@@H](CCCN)C(=O)N[C@H](CC(=O)O)C(=O)N[C@H](C)C(=O)N[C@@H](CC(=O)O)C(=O)NCC(=O)N[C@H](CO)C(=O)N[C@@H]([C@@H](C)CC(=O)O)C(=O)N[C@@H](CC(=O)c4ccccc4N)C(=O)O[C@@H]3C)cc2)cc1 | 16 (≈ 9.01 µM) | 4 (≈ 2.25 µM) | 1 (≈ 0.563 µM) | 0.125 (≈ 0.0704 µM) |
